# Data taken from US9469650B2, “Melampomagnolide B derivatives” (BOARD OF TRUSTEES OF THE UNIVERSITY OF ARKANSAS, priority 2013, dated 2016).
# Like-named read-outs stand apart in the source and are kept apart here.
# What was measured:
# [1] = system: SK-MEL-2; test: panel of 60 human tumor cell lines, growth inhibition (Melanoma); details: Homo sapiens; for GI50: SK-MEL-2; for CC50: SK-MEL-2, read-out: LC50; for IC (TGI): SK-MEL-2, read-out: TGI
# [2] = system: IGROV1; test: panel of 60 human tumor cell lines, growth inhibition (Ovarian Cancer); details: Homo sapiens; for GI50: IGROV-1; for CC50: IGROV-1, read-out: LC50; for IC (TGI): IGROV-1, read-out: TGI
# [3] = system: SK-MEL-28; test: panel of 60 human tumor cell lines, growth inhibition (Melanoma); details: Homo sapiens; for GI50: SK-MEL-28; for CC50: SK-MEL-28, read-out: LC50; for IC (TGI): SK-MEL-28, read-out: TGI
# [4] = system: SNB-19; test: panel of 60 human tumor cell lines, growth inhibition (CNS Cancer); details: Homo sapiens; for GI50: SNB-19; for CC50: SNB-19, read-out: LC50; for IC (TGI): SNB-19, read-out: TGI
# [5] = system: CAKI-1; test: panel of 60 human tumor cell lines, growth inhibition (Renal Cancer); details: Homo sapiens; for GI50: CAKI-1; for CC50: CAKI-1, read-out: LC50; for IC (TGI): CAKI-1, read-out: TGI
# [6] = system: MOLT-4; test: panel of 60 human tumor cell lines, growth inhibition (Leukemia); details: Homo sapiens; for GI50: MOLT-4; for CC50: MOLT-4, read-out: LC50; for IC (TGI): MOLT-4, read-out: TGI
# [7] = system: UACC-62; test: panel of 60 human tumor cell lines, growth inhibition (Melanoma); details: Homo sapiens; for GI50: UACC-62; for CC50: UACC-62, read-out: LC50; for IC (TGI): UACC-62, read-out: TGI
# [8] = system: MDA-MB-468; test: panel of 60 human tumor cell lines, growth inhibition (Breast Cancer); details: Homo sapiens; for GI50: MDA-MB-468; for CC50: MDA-MB-468, read-out: LC50; for IC (TGI): MDA-MB-468, read-out: TGI
# [9] = system: DU-145; test: panel of 60 human tumor cell lines, growth inhibition (Prostate Cancer); details: Homo sapiens; for GI50: DU-145; for CC50: DU-145, read-out: LC50; for IC (TGI): DU-145, read-out: TGI
# [10] = system: HOP-92; test: panel of 60 human tumor cell lines, growth inhibition (Non-Small Cell Lung Cancer); details: Homo sapiens; for GI50: HOP-92, HOP-92, NCI five dose; for CC50: HOP-92, read-out: LC50; for IC (TGI): HOP-92, read-out: TGI
# [11] = system: PC-3; test: panel of 60 human tumor cell lines, growth inhibition (Prostate Cancer); details: Homo sapiens; for GI50: PC-3; for CC50: PC-3, read-out: LC50; for IC (TGI): PC-3, read-out: TGI
# [12] = system: COLO 205; test: panel of 60 human tumor cell lines, growth inhibition (Colon Cancer); details: Homo sapiens; for GI50: COLO 205; for CC50: COLO 205, read-out: LC50; for IC (TGI): COLO 205, read-out: TGI
# [13] = system: NCI/ADR-RES; test: panel of 60 human tumor cell lines, growth inhibition (Ovarian Cancer); details: Homo sapiens; for CC50: read-out: LC50; for IC (TGI): read-out: TGI
# [14] = system: SF-539; test: panel of 60 human tumor cell lines, growth inhibition (CNS Cancer); details: Homo sapiens; for GI50: SF-539; for CC50: SF-539, read-out: LC50; for IC (TGI): SF-539, read-out: TGI
# [15] = system: A498; test: panel of 60 human tumor cell lines, growth inhibition (Renal Cancer); details: Homo sapiens; for GI50: A498; for CC50: A498, read-out: LC50; for IC (TGI): A498, read-out: TGI
# [16] = system: NCI-H23; test: panel of 60 human tumor cell lines, growth inhibition (Non-Small Cell Lung Cancer); details: Homo sapiens; for GI50: NCI-H23; for CC50: NCI-H23, read-out: LC50; for IC (TGI): NCI-H23, read-out: TGI
# [17] = system: RXF 393; test: panel of 60 human tumor cell lines, growth inhibition (Renal Cancer); details: Homo sapiens; for GI50: RXF 393, RXF 393, NCI five dose; for CC50: RXF 393, read-out: LC50; for IC (TGI): RXF 393, read-out: TGI
# [18] = system: HL-60(TB)
compound,measurement,setting,value
C=C1C(=O)O[C@H]2[C@H]1CC/C(COC(=O)OC)=C\CC[C@@]1(C)O[C@@H]21 [JVM 2-40],GI50,[1],10.6 µM
same,CC50,[1],59.5 µM
same,IC (TGI),[1],25.1 µM
same,GI50,[2],16.6 µM
same,CC50,[2],85.8 µM
same,IC (TGI),[2],37.7 µM
same,GI50,[3],3.59 µM
same,CC50,[3],44.8 µM
same,IC (TGI),[3],16 µM
same,GI50,[4],13.5 µM
same,CC50,[4],59.1 µM
same,IC (TGI),[4],28.2 µM
same,GI50,[5],2.79 µM
same,CC50,[5],38.8 µM
same,IC (TGI),[5],15 µM
same,GI50,[6],4.05 µM
same,CC50,[6],> 100 µM
same,IC (TGI),[6],21.7 µM
same,GI50,[7],5.93 µM
same,CC50,[7],46.2 µM
same,IC (TGI),[7],19.5 µM
same,GI50,[8],0.574 µM
same,CC50,[8],19.2 µM
same,IC (TGI),[8],3.09 µM
same,GI50,[9],3.35 µM
same,CC50,[9],37.7 µM
same,IC (TGI),[9],14 µM
same,GI50,[10],2.33 µM
same,CC50,[10],30.7 µM
same,IC (TGI),[10],7.99 µM
same,GI50,[11],12 µM
same,CC50,[11],59.4 µM
same,IC (TGI),[11],26.7 µM
same,GI50,[12],2.25 µM
same,CC50,[12],25 µM
same,GI50,[13],17.2 µM
same,CC50,[13],> 100 µM
same,IC (TGI),[13],49.2 µM
same,GI50,[14],2.56 µM
same,CC50,[14],32.7 µM
same,IC (TGI),[14],8.79 µM
same,GI50,[15],10.9 µM
same,CC50,[15],49 µM
same,IC (TGI),[15],23.1 µM
same,GI50,[16],13 µM
same,CC50,[16],85.2 µM
same,IC (TGI),[16],33.3 µM
same,GI50,[17],1.68 µM
same,CC50,[17],31.7 µM
same,IC (TGI),[17],6.85 µM
same,Percent Growth,[18]; Log10 Concentration −4.0,−55%
same,Percent Growth,[18]; Log10 Concentration −5.0,−12%
same,Percent Growth,[18]; Log10 Concentration −6.0,68%
same,Percent Growth,[18]; Log10 Concentration −7.0,91%
same,Percent Growth,[18]; Log10 Concentration −8.0,97%
C=C1C(=O)O[C@H]2[C@H]1CC/C(COC(=O)NCCCCCCO)=C\CC[C@@]1(C)O[C@@H]21 [JVM 2-31],GI50,[1],14.4 µM
same,CC50,[1],70.4 µM
same,IC (TGI),[1],31.9 µM
same,GI50,[2],17.4 µM
same,CC50,[2],80.7 µM
same,IC (TGI),[2],37.5 µM
same,GI50,[3],5.21 µM
same,CC50,[3],43.7 µM
same,IC (TGI),[3],18.1 µM
same,GI50,[4],16.7 µM
same,CC50,[4],> 100 µM
same,IC (TGI),[4],51.3 µM
same,GI50,[5],3.44 µM
same,CC50,[5],40.2 µM
same,IC (TGI),[5],15.5 µM
same,GI50,[6],5.33 µM
same,CC50,[6],> 100 µM
same,IC (TGI),[6],26.6 µM
same,GI50,[7],6.78 µM
same,CC50,[7],53.4 µM
same,IC (TGI),[7],21.4 µM
same,GI50,[8],1.01 µM
same,CC50,[8],35.7 µM
same,IC (TGI),[8],5.23 µM
same,GI50,[9],3.68 µM
same,CC50,[9],39.4 µM
same,IC (TGI),[9],14.3 µM
same,GI50,[10],2.77 µM
same,CC50,[10],38.5 µM
same,IC (TGI),[10],9.99 µM
same,GI50,[11],13.3 µM
same,CC50,[11],64.1 µM
same,IC (TGI),[11],29.2 µM
same,GI50,[12],2.56 µM
same,CC50,[12],32 µM
same,IC (TGI),[12],6.39 µM
same,GI50,[13],28.1 µM
same,CC50,[13],> 100 µM
same,IC (TGI),[13],> 100 µM
same,GI50,[14],2.42 µM
same,CC50,[14],34.8 µM
same,IC (TGI),[14],8.33 µM
same,GI50,[15],12.5 µM
same,CC50,[15],53.4 µM
same,IC (TGI),[15],25.9 µM
same,GI50,[16],13.5 µM
same,CC50,[16],72 µM
same,IC (TGI),[16],31.1 µM
same,GI50,[17],1.24 µM
same,CC50,[17],40.2 µM
same,IC (TGI),[17],9.75 µM
same,Percent Growth,[18]; Log10 Concentration −4.0,−49%
same,Percent Growth,[18]; Log10 Concentration −5.0,9%
same,Percent Growth,[18]; Log10 Concentration −6.0,103%
same,Percent Growth,[18]; Log10 Concentration −7.0,107%
same,Percent Growth,[18]; Log10 Concentration −8.0,115%
C=C1C(=O)O[C@H]2[C@H]1CC/C(COC(=O)OCCN(C)C)=C\CC[C@@]1(C)O[C@@H]21 [JVM 2-35],GI50,[1],15.2 µM
same,CC50,[1],86.6 µM
same,IC (TGI),[1],36.3 µM
same,GI50,[2],17.7 µM
same,CC50,[2],> 100 µM
same,IC (TGI),[2],44 µM
same,GI50,[3],4.27 µM
same,CC50,[3],48.3 µM
same,IC (TGI),[3],17.9 µM
same,GI50,[4],18.6 µM
same,CC50,[4],> 100 µM
same,IC (TGI),[4],62 µM
same,GI50,[5],3.22 µM
same,CC50,[5],39.9 µM
same,IC (TGI),[5],15.6 µM
same,GI50,[6],5.5 µM
same,CC50,[6],> 100 µM
same,IC (TGI),[6],26.1 µM
same,GI50,[7],6.13 µM
same,CC50,[7],46.6 µM
same,IC (TGI),[7],19.9 µM
same,GI50,[8],1.46 µM
same,CC50,[8],50.4 µM
same,IC (TGI),[8],9.2 µM
same,GI50,[9],3.59 µM
same,CC50,[9],37.7 µM
same,IC (TGI),[9],13.2 µM
same,GI50,[10],2.69 µM
same,CC50,[10],35.8 µM
same,IC (TGI),[10],10.1 µM
same,GI50,[11],14 µM
same,CC50,[11],64.5 µM
same,IC (TGI),[11],30 µM
same,GI50,[12],2.19 µM
same,CC50,[12],18.6 µM
same,IC (TGI),[12],5.46 µM
same,GI50,[13],23.7 µM
same,CC50,[13],> 100 µM
same,IC (TGI),[13],84.6 µM
same,GI50,[14],3.86 µM
same,CC50,[14],41.3 µM
same,IC (TGI),[14],14.7 µM
same,GI50,[15],13.3 µM
same,CC50,[15],56.6 µM
same,IC (TGI),[15],27.4 µM
same,GI50,[16],16 µM
same,CC50,[16],91 µM
same,IC (TGI),[16],38.2 µM
same,GI50,[17],3.23 µM
same,CC50,[17],45.8 µM
same,IC (TGI),[17],13.7 µM
same,Percent Growth,[18]; Log10 Concentration −4.0,−52%
same,Percent Growth,[18]; Log10 Concentration −5.0,−17%
same,Percent Growth,[18]; Log10 Concentration −6.0,72%
same,Percent Growth,[18]; Log10 Concentration −7.0,83%
same,Percent Growth,[18]; Log10 Concentration −8.0,94%
